Test results from patent US20200375929A1, “METHODS AND COMPOSITIONS FOR THE TREATMENT OF DISEASES ASSOCIATED WITH CANCER, INFLAMMATION, OR IMMUNE RESPONSE” (Washington University, priority 2017, published 2020).
“Also recorded” adds a separate entry of the source. Structures can show the parent of a compound that is named as a salt. Where a SMILES comes first, the peptide text is derived from it. The star is where a group is joined. Cbz = O=C(OCc1ccccc1)*

How the values were obtained:
IκBζ [1] = test: LPS-induced Ikb-ζ protein induction in BMDMs (western blot); format: cell-based, mouse; conditions: for LPS-induced Ikb-ζ induction, protein level: BMDMs treated with compound 12 h, then LPS 100 ng/ml; for effect of added agent on Ikb-ζ induction in DI-treated cells: DI 12 h plus agent
Protocol: (§1) BMDM were prepared from 6- to 12-week-old mice as described 1 and cultured in RMPI-1640 medium supplemented with 10% fetal bovine serum (FBS), 2 mM L-glutamine, and 100 U/mL penicillin-streptomycin and mouse recombinant M-CSF ([…], Peprotech). For experiments, cells were seeded at concentration 10^6 cells/mL in tissue culture plates of various formats. The cells were treated with DI (250 μM (unless stated otherwise), cat #592498, Sigma), DMF (50 μM (unless stated otherwise), cat #242926, Sigma), 3-(ethoxycarbonyl)but-3-enoic acid (3MI, 5 μM, Aris Pharmaceuticals Inc.), 4-ethoxy-2-methylene-4-oxobutanoic acid (MI, Aris Pharmaceuticals Inc.) for 12 h and activated with lipopolysaccharide (LPS; 100 ng/mL; E. coli 0111:B4, Sigma) for 1 h or as indicated. In some experiments cells were stimulated with combination of LPS (20 ng/mL) and IFN-γ (50 ng/mL; Peprotech). In some experiments cells were treated with α-tocopherol (AT, 10 μM; Sigma), MitoTEMPO (MT, 500 μM; Sigma), N-acetylcysteine (NAC, 1 mM, Sigma), ethylester of GSH (EtGSH; 1 mM, Santa Cruz) or buthionene sulfoximine (BSO, 500 μM, Sigma) alone or in combination with DI for 12 h. In some experiments BMDMs were treated with DI for 12 h and bafilomycin A (BafA, 100 nM, Sigma) or MG132 (10 μM, Selleckchem) were added 30 min before subsequent LPS stimulation.
Cells were lysed in RIPA Lysis Buffer System (Santa Cruz) and heat-denatured at 95° C. for 5 min in reducing sample buffer (BioRad). Proteins were separated on 4%-20% polyacrylamide gradient gels (BioRad) and transferred onto 0.45 μm pore size PVDF membranes (Millipore). Non-specific binding was blocked with 5% skim milk (or 5% BSA when phospho-proteins were analyzed), and membranes were probed with primary antibodies specific to Nrf2 (#12721), HO-1 (#70081), IκBζ (mouse specific, #93726), IκBζ(#9244), ATF3 (#D2Y5W), IRAK1 (#4504; sensitivity of IRAK1 detection diminishes upon IRAK1 K63 ubiquitination), phospho-IKK (Ser176/180, #2697), p62/SQSTM1 (#5114), phospho-eIF2α (Ser51, #9721), eIF2α (#5324) from Cell Signaling; GAPDH (sc-25778), IκBα (sc-1643), ATF3 (sc-188), SDHA (sc-166909) from Santa Cruz; NQO1 (ab28947) from Abeam, followed by incubation with anti-rabbit-HRP (1:10,000; sc-2030) or anti-mouse-HRP (1:10,000; sc-2031) from Santa Cruz and Clarity western ECL substrate (Bio-Rad). Membranes were exposed to X-Ray films (Research Products International Corp.) and developed using SRX-101A film processor (Konica Minolta). GAPDH run on the same blot was used as loading control. After scanning of original films image brightness of some blots was adjusted and bands were cropped using ImageJ. Densitometry was performed using ImageJ.

IL6, IL12, IL1b, TNFα = test: Cytokine production in LPS-stimulated BMDMs (ELISA); format: cell-based, mouse; conditions: then LPS; for effect of co-treatment on DI-mediated inhibition of cytokine (IL6) production: agent added simultaneously with DI; for LPS-induced cytokine production: BMDMs pretreated 12 h
Protocol: as §1
Cytokines in cell supernatants were analyzed using DuoSet® ELISA kits according to manufacturer protocol (R&D Systems). The supernatants from BMDMs were diluted 1:4, from human blood monocytes 1:3.

ATF3 = ATF3 protein expression (western blot); format: cell-based, mouse; conditions: mouse macrophages and human monocytes, DI plus agent
Protocol: as §1, with “In some experiments BMDMs were treated with DI for 12 h and bafilomycin A (BafA, 100 nM, Sigma) or MG132 (10 μM, Selleckchem) were added 30 min before subsequent LPS stimulation.” left out
(§2) Cells were lysed in RIPA Lysis Buffer System (Santa Cruz) and heat-denatured at 95° C. for 5 min in reducing sample buffer (BioRad). […] Non-specific binding was blocked with 5% skim milk (or 5% BSA when phospho-proteins were analyzed), and membranes were probed with primary antibodies specific to Nrf2 (#12721), HO-1 (#70081), IκBζ (mouse specific, #93726), IκBζ(#9244), ATF3 (#D2Y5W), IRAK1 (#4504; sensitivity of IRAK1 detection diminishes upon IRAK1 K63 ubiquitination), phospho-IKK (Ser176/180, #2697), p62/SQSTM1 (#5114), phospho-eIF2α (Ser51, #9721), eIF2α (#5324) from Cell Signaling; GAPDH (sc-25778), IκBα (sc-1643), ATF3 (sc-188), SDHA (sc-166909) from Santa Cruz; NQO1 (ab28947) from Abeam, followed by incubation with anti-rabbit-HRP (1:10,000; sc-2030) or anti-mouse-HRP (1:10,000; sc-2031) from Santa Cruz and Clarity western ECL substrate (Bio-Rad). […]

HBL1 cells line (ABC) = test: DLBCL cell viability, resazurin assay, ABC subtype; format: cell-based; conditions: HBL1, 4 days, refreshed daily; DI 125-250 μM
[2] = test system: LY1 and LY7 (GCB) cell lines; test: DLBCL cell viability, resazurin assay, GCB subtype; format: cell-based; conditions: LY1 and LY7, 4 days, refreshed daily; DI 125-250 μM
STAT3 = STAT3 activation in LPS-stimulated BMDMs (western blot); format: cell-based, mouse; conditions: BMDMs, 12 h pretreatment
Protocol: as §1, with “In some experiments BMDMs were treated with DI for 12 h and bafilomycin A (BafA, 100 nM, Sigma) or MG132 (10 μM, Selleckchem) were added 30 min before subsequent LPS stimulation.” left out
as §2

Nrf2 = Nrf2 response in BMDMs (western blot, target genes); format: cell-based, mouse; conditions: 12 h treatment
Protocol: as §1, with “In some experiments BMDMs were treated with DI for 12 h and bafilomycin A (BafA, 100 nM, Sigma) or MG132 (10 μM, Selleckchem) were added 30 min before subsequent LPS stimulation.” left out
as §2

IκBζ [3] = test: Ikb-ζ protein in LPS-stimulated human monocytes (western blot); format: cell-based; conditions: human blood monocytes, DI plus agent, LPS 1 h
Protocol: Cells were lysed in RIPA Lysis Buffer System (Santa Cruz) and heat-denatured at 95° C. for 5 min in reducing sample buffer (BioRad). Proteins were separated on 4%-20% polyacrylamide gradient gels (BioRad) and transferred onto 0.45 μm pore size PVDF membranes (Millipore). Non-specific binding was blocked with 5% skim milk (or 5% BSA when phospho-proteins were analyzed), and membranes were probed with primary antibodies specific to Nrf2 (#12721), HO-1 (#70081), IκBζ (mouse specific, #93726), IκBζ(#9244), ATF3 (#D2Y5W), IRAK1 (#4504; sensitivity of IRAK1 detection diminishes upon IRAK1 K63 ubiquitination), phospho-IKK (Ser176/180, #2697), p62/SQSTM1 (#5114), phospho-eIF2α (Ser51, #9721), eIF2α (#5324) from Cell Signaling; GAPDH (sc-25778), IκBα (sc-1643), ATF3 (sc-188), SDHA (sc-166909) from Santa Cruz; NQO1 (ab28947) from Abeam, followed by incubation with anti-rabbit-HRP (1:10,000; sc-2030) or anti-mouse-HRP (1:10,000; sc-2031) from Santa Cruz and Clarity western ECL substrate (Bio-Rad). […]
Blood from healthy donors was acquired from LRS chambers supplied by the Mississippi Valley Regional Blood Center. […] After extensive washes to allow removal of non-adherent cells, monocytes (>95% purity) were harvested, counted and 5×10^5 cells were plated per well in 24-well plates. […]

## C=C(CC(=O)O)C(=O)OCC [3MI, 3-(ethoxycarbonyl)but-3-enoic acid]
IκBζ [1]
  LPS-induced Ikb-ζ induction, protein level: inhibited IκBζ induction

## COC(=O)CC(=O)OC [DM, Dimethyl malonate, reference compound]
IκBζ [1]
  LPS-induced Ikb-ζ induction, protein level: does not affect Ikbζ expression

## C=C(CC(=O)OCC)C(=O)O [MI, 4-ethoxy-2-methylene-4-oxobutanoic acid]
IκBζ [1]
  LPS-induced Ikb-ζ induction, protein level: did not
IκBζ [1]; BMDMs, compound plus BSO 500 μM, LPS
  effect on IκBζ/IL-6 in combination with BSO: unlocked the effect

## CC(=O)N[C@@H](CS)C(=O)O [NAC, N-acetylcysteine]
IL6, IL12, IL1b, TNFα
  effect of co-treatment on DI-mediated inhibition of cytokine (IL6) production: completely abrogated effect of DI when added simultaneously with DI
IL6, IL12, IL1b, TNFα; listed as N-acetylcysteine
  effect of co-treatment on DI-mediated inhibition of cytokine (IL6) production: reversed the effect of DI
ATF3
  DI-mediated ATF3 expression upon co-treatment: efficiently decreased
IκBζ [1]; BMDMs, LPS
  effect of added agent on Ikb-ζ induction in DI-treated cells: restored Ikb-ζ production; also recorded: restored LPS-mediated IκBζ induction

## CC(C)C[C@@H](C=O)NC(=O)[C@H](CC(C)C)NC(=O)[C@H](CC(C)C)NC(=O)OCc1ccccc1 [MG132, reference compound] (Cbz-Leu-Leu-Leu-aldehyde)
IκBζ [1]; BMDMs, LPS
  effect of added agent on Ikb-ζ induction in DI-treated cells: did not affect Ikb-ζ levels; also recorded: neither rescued IκBζ induction

## CN1CCCC(CN2c3ccccc3Sc3ccccc32)C1 (stereo not shown) [Mepazine, mepazine, reference compound]
HBL1 cells line (ABC)
  growth / toxicity, ABC DLBCL: inhibited growth of HBL1
[2]
  growth / toxicity, GCB DLBCL: not LY1 and LY7

## COC(=O)/C=C/C(=O)OC [DMF, Dimethyl fumarate, reference compound]
IL6, IL12, IL1b, TNFα
  LPS-induced cytokine production: inhibit IL6 but not TNF production; also recorded: selective inhibition of IL-6
STAT3
  STAT3 activation (Y705 phosphorylation): effective to inhibit STAT3 activation
IκBζ [1]
  LPS-induced Ikb-ζ induction, protein level: strongly inhibited Ikb-ζ induction; also recorded: inhibited IκBζ induction
Nrf2
  Nrf2 response (Nrf2 protein, target genes): triggered Nrf2 response

## CCOC(=O)CNC(=O)[C@H](CS)NC(=O)CC[C@H](N)C(=O)O [EtGSH, ethylester of GSH, reference compound]
IL6, IL12, IL1b, TNFα
  effect of co-treatment on DI-mediated inhibition of cytokine (IL6) production: reversed the effect of DI
ATF3
  DI-mediated ATF3 expression upon co-treatment: efficiently decreased
IκBζ [3]
  effect of co-treatment on IκBζ induction in DI-treated cells: restored LPS-mediated IκBζ induction
IκBζ [1]; BMDMs, LPS
  effect of added agent on Ikb-ζ induction in DI-treated cells: restored LPS-mediated IκBζ induction

## CCCCS(=N)(=O)CCC(N)C(=O)O (stereo not shown) [BSO, buthionine sulfoximine, reference compound]
IL6, IL12, IL1b, TNFα
  LPS-induced cytokine production: does not inhibit cytokine production
Nrf2
  Nrf2 response (Nrf2 protein, target genes): nor trigger Nrf2 response

## CO/C1=C\C(C)=C\[C@@H](C)[C@@H](O)[C@@H](C)C/C(C)=C/C=C/[C@H](OC)[C@@H]([C@@H](C)[C@@H](O)[C@H](C)[C@@]2(O)C[C@@H](O)[C@H](C)[C@@H](C(C)C)O2)OC1=O [bafilomycin A, reference compound]
IκBζ [1]; BMDMs, LPS
  effect of added agent on Ikb-ζ induction in DI-treated cells: neither rescued IκBζ induction
